# Measured values: paper PMC8699473, “An Easily Expandable Multi-Drug LC-MS Assay for the Simultaneous Quantification of 57 Oral Antitumor Drugs in Human Plasma” (Cancers, 2021)
# What was measured:
# [1] = Short-term stability in spiked pooled human plasma (bench-top, 4 °C, 56 °C)
# [2] = Freeze-thaw stability in spiked pooled human plasma; type: physicochemical
# [3] = Long-term stability in spiked pooled human plasma
# [4] = Autosampler stability of ready for injection samples; type: physicochemical, human
# [5] = set-up: method as in supplement references [1-55] as printed per drug; conditions: minimum steady-state blood plasma concentration after multiple dose administration; ref supplement references [1-55] per drug; cited from earlier work
smiles,measurement,setting,value
CNCc1ccc(-c2[nH]c3cc(F)cc4c3c2CCNC4=O)cc1 [Rucaparib],"Short-time stability (1h, 56°C) Accuracy [%]",[1]; validation standard 2xLLOV,56.7%
same,"Short-time stability (24h, 4°C, without daylight) Accuracy [%]",[1]; validation standard 2xLLOV,94.0%
same,"Short-time stability (24h, RT, with daylight) Accuracy [%]",[1]; validation standard 2xLLOV,94.3%
same,"Short-time stability (24h, RT, without daylight) Accuracy [%]",[1]; validation standard 2xLLOV,95.8%
same,"Short-time stability (1h, 56°C) Accuracy [%]",[1]; validation standard LLOV,60.9%
same,"Short-time stability (24h, 4°C, without daylight) Accuracy [%]",[1]; validation standard LLOV,106.8%
same,"Short-time stability (24h, RT, with daylight) Accuracy [%]",[1]; validation standard LLOV,100.0%
same,"Short-time stability (24h, RT, without daylight) Accuracy [%]",[1]; validation standard LLOV,99.7%
same,"Short-time stability (1h, 56°C) Accuracy [%]",[1]; validation standard MOV,52.2%
same,"Short-time stability (24h, 4°C, without daylight) Accuracy [%]",[1]; validation standard MOV,102.0%
same,"Short-time stability (24h, RT, with daylight) Accuracy [%]",[1]; validation standard MOV,100.5%
same,"Short-time stability (24h, RT, without daylight) Accuracy [%]",[1]; validation standard MOV,102.1%
same,"Short-time stability (1h, 56°C) Accuracy [%]",[1]; validation standard ULOV,46.1%
same,"Short-time stability (24h, 4°C, without daylight) Accuracy [%]",[1]; validation standard ULOV,96.9%
same,"Short-time stability (24h, RT, with daylight) Accuracy [%]",[1]; validation standard ULOV,98.9%
same,"Short-time stability (24h, RT, without daylight) Accuracy [%]",[1]; validation standard ULOV,99.1%
same,Freeze-Thaw Accuracy [%],[2]; validation standard 2xLLOV,93.7%
same,Freeze-Thaw Accuracy [%],[2]; validation standard LLOV,104.4%
same,Freeze-Thaw Accuracy [%],[2]; validation standard MOV,97.8%
same,Freeze-Thaw Accuracy [%],[2]; validation standard ULOV,95.5%
same,"Long-term stability, 1 month, -20°C Accuracy [%]",[3]; validation standard 2xLLOV,95.4%
same,"Long-term stability, 1 month, -80°C Accuracy [%]",[3]; validation standard 2xLLOV,89.7%
same,"Long-term stability, 2 month, -20°C Accuracy [%]",[3]; validation standard 2xLLOV,100.7%
same,"Long-term stability, 2 month, -80°C Accuracy [%]",[3]; validation standard 2xLLOV,99.7%
same,"Long-term stability, 3 month, -20°C Accuracy [%]",[3]; validation standard 2xLLOV,95.9%
same,"Long-term stability, 3 month, -80°C Accuracy [%]",[3]; validation standard 2xLLOV,94.7%
same,"Long-term stability, 6 weeks, 4°C, without daylight Accuracy [%]",[3]; validation standard 2xLLOV,93.1%
same,"Long-term stability, 1 month, -20°C Accuracy [%]",[3]; validation standard LLOV,104.7%
same,"Long-term stability, 1 month, -80°C Accuracy [%]",[3]; validation standard LLOV,102.1%
same,"Long-term stability, 2 month, -20°C Accuracy [%]",[3]; validation standard LLOV,115.1%
same,"Long-term stability, 2 month, -80°C Accuracy [%]",[3]; validation standard LLOV,112.2%
same,"Long-term stability, 3 month, -20°C Accuracy [%]",[3]; validation standard LLOV,109.6%
same,"Long-term stability, 3 month, -80°C Accuracy [%]",[3]; validation standard LLOV,108.0%
same,"Long-term stability, 6 weeks, 4°C, without daylight Accuracy [%]",[3]; validation standard LLOV,104.4%
same,"Long-term stability, 1 month, -20°C Accuracy [%]",[3]; validation standard MOV,98.5%
same,"Long-term stability, 1 month, -80°C Accuracy [%]",[3]; validation standard MOV,95.5%
same,"Long-term stability, 2 month, -20°C Accuracy [%]",[3]; validation standard MOV,104.6%
same,"Long-term stability, 2 month, -80°C Accuracy [%]",[3]; validation standard MOV,102.1%
same,"Long-term stability, 3 month, -20°C Accuracy [%]",[3]; validation standard MOV,101.6%
same,"Long-term stability, 3 month, -80°C Accuracy [%]",[3]; validation standard MOV,97.2%
same,"Long-term stability, 6 weeks, 4°C, without daylight Accuracy [%]",[3]; validation standard MOV,103.5%
same,"Long-term stability, 1 month, -20°C Accuracy [%]",[3]; validation standard ULOV,99.8%
same,"Long-term stability, 1 month, -80°C Accuracy [%]",[3]; validation standard ULOV,94.8%
same,"Long-term stability, 2 month, -20°C Accuracy [%]",[3]; validation standard ULOV,104.3%
same,"Long-term stability, 2 month, -80°C Accuracy [%]",[3]; validation standard ULOV,102.7%
same,"Long-term stability, 3 month, -20°C Accuracy [%]",[3]; validation standard ULOV,100.6%
same,"Long-term stability, 3 month, -80°C Accuracy [%]",[3]; validation standard ULOV,98.3%
same,"Long-term stability, 6 weeks, 4°C, without daylight Accuracy [%]",[3]; validation standard ULOV,100.2%
same,"Autosampler (24h, 4°C) Accuracy [%]",[4]; validation standard 2xLLOV,98.1%
same,"Autosampler (72h, 4°C) Accuracy [%]",[4]; validation standard 2xLLOV,96.4%
same,"Autosampler (24h, 4°C) Accuracy [%]",[4]; validation standard LLOV,104.5%
same,"Autosampler (72h, 4°C) Accuracy [%]",[4]; validation standard LLOV,104.1%
same,"Autosampler (24h, 4°C) Accuracy [%]",[4]; validation standard MOV,104.6%
same,"Autosampler (72h, 4°C) Accuracy [%]",[4]; validation standard MOV,103.8%
same,"Autosampler (24h, 4°C) Accuracy [%]",[4]; validation standard ULOV,100.1%
same,"Autosampler (72h, 4°C) Accuracy [%]",[4]; validation standard ULOV,102.4%
same,cmin,[5],1754 ng/mL
